Experimental data as given in patent US9539233B2, “Gallium formulation for the treatment and prevention of infectious diseases” (Aridis Pharmaceuticals Inc., priority 2009, dated 2017).
In brackets after ≈: the same amount, converted by molar mass. Like-named read-outs stand apart in the source and are kept apart here.

How the values were obtained:
P. aeruginosa = conditions: for MIC: iron-starved BM-2 broth
Pa [1] = conditions: i.t. inoculation of a lethal dose of Pa followed by nasal instillation of a bolus of liquid; mouse; cited from earlier work
B. anthracis 7702 cells = type: cell-based; conditions: 1:1 gallium-to-citrate molar ratio, approximately 20 hours of growth
Pa [2] = conditions: against Pa; cited from earlier work

NC[C@H]1O[C@H](O[C@H]2[C@H](O)[C@@H](O[C@H]3O[C@H](CO)[C@@H](O)[C@H](N)[C@H]3O)[C@H](N)C[C@@H]2N)[C@H](N)C[C@@H]1O [Tobramycin]
susceptibility category (R/S/I) (P. aeruginosa; Mucoid Strain 20JR): S | susceptibility category (R/S/I) (P. aeruginosa; Mucoid Strain 35LK): I | susceptibility category (R/S/I) (P. aeruginosa; Mucoid Strain 41JQ): R | susceptibility category (R/S/I) (P. aeruginosa; Mucoid Strain 47JS): R | susceptibility category (R/S/I) (P. aeruginosa; Mucoid Strain 62LL): S | susceptibility category (R/S/I) (P. aeruginosa; Mucoid Strain 96JC): R | susceptibility category (R/S/I) (P. aeruginosa; Mucoid Strain 97JE): R | susceptibility category (R/S/I) (P. aeruginosa; Non-mucoid Strain 9HN): R | susceptibility category (R/S/I) (P. aeruginosa; Non-mucoid Strain 30IX): R | susceptibility category (R/S/I) (P. aeruginosa; Non-mucoid Strain 30JS): S | susceptibility category (R/S/I) (P. aeruginosa; Non-mucoid Strain 38LL): I | susceptibility category (R/S/I) (P. aeruginosa; Non-mucoid Strain 39IV): S | susceptibility category (R/S/I) (P. aeruginosa; Non-mucoid Strain 46IV): R | susceptibility category (R/S/I) (P. aeruginosa; Non-mucoid Strain 55HY): R | MIC (P. aeruginosa; Pseudomonas aeruginosa, 24 h, Non-mucoid Strain 9HN): 128 µg/mL (≈ 274 µM) | MIC (P. aeruginosa; Pseudomonas aeruginosa, 24 h, Non-mucoid Strain 55HY): 128 µg/mL (≈ 274 µM)

C[C@H]1[C@H](NC(=O)/C(=N\OC(C)(C)C(=O)O)c2csc(N)n2)C(=O)N1S(=O)(=O)O [Aztreonam]
susceptibility category (R/S/I) (P. aeruginosa; Mucoid Strain 20JR): S | susceptibility category (R/S/I) (P. aeruginosa; Mucoid Strain 35LK): S | susceptibility category (R/S/I) (P. aeruginosa; Mucoid Strain 41JQ): R | susceptibility category (R/S/I) (P. aeruginosa; Mucoid Strain 47JS): I | susceptibility category (R/S/I) (P. aeruginosa; Mucoid Strain 62LL): R | susceptibility category (R/S/I) (P. aeruginosa; Mucoid Strain 96JC): R | susceptibility category (R/S/I) (P. aeruginosa; Mucoid Strain 97JE): R | susceptibility category (R/S/I) (P. aeruginosa; Non-mucoid Strain 9HN): R | susceptibility category (R/S/I) (P. aeruginosa; Non-mucoid Strain 30IX): S | susceptibility category (R/S/I) (P. aeruginosa; Non-mucoid Strain 30JS): S | susceptibility category (R/S/I) (P. aeruginosa; Non-mucoid Strain 38LL): R | susceptibility category (R/S/I) (P. aeruginosa; Non-mucoid Strain 39IV): R | susceptibility category (R/S/I) (P. aeruginosa; Non-mucoid Strain 46IV): R | susceptibility category (R/S/I) (P. aeruginosa; Non-mucoid Strain 55HY): I

O=[N+]([O-])[O-].O=[N+]([O-])[O-].O=[N+]([O-])[O-].[Ga+3] [Gallium, gallium nitrate]
protection (Pa [1]): good protection | MIC (P. aeruginosa; Mucoid Strain 20JR, 24 hours): <1 µg/mL | MIC (P. aeruginosa; Mucoid Strain 35LK, 24 hours): <1 µg/mL | MIC (P. aeruginosa; Mucoid Strain 41JQ, 24 hours): <32 µg/mL | MIC (P. aeruginosa; Mucoid Strain 47JS, 24 hours): <1 µg/mL | MIC (P. aeruginosa; Mucoid Strain 62LL, 24 hours): <1 µg/mL | MIC (P. aeruginosa; Mucoid Strain 96JC, 24 hours): <1 µg/mL | MIC (P. aeruginosa; Mucoid Strain 97JE, 24 hours): <1 µg/mL | MIC (P. aeruginosa; Non-mucoid Strain 9HN, 24 hours): <2 µg/mL | MIC (P. aeruginosa; Non-mucoid Strain 30IX, 24 hours): <1 µg/mL | MIC (P. aeruginosa; Non-mucoid Strain 30JS, 24 hours): <1 µg/mL | MIC (P. aeruginosa; Non-mucoid Strain 38LL, 24 hours): <1 µg/mL | MIC (P. aeruginosa; Non-mucoid Strain 39IV, 24 hours): <1 µg/mL | MIC (P. aeruginosa; Non-mucoid Strain 46IV, 24 hours): <1 µg/mL | MIC (P. aeruginosa; Non-mucoid Strain 55HY, 24 hours): <1 µg/mL | OD600 nm (B. anthracis 7702 cells; Gallium concentration 6.8 μM, TSB, 37° C.): 0.000 | OD600 nm (B. anthracis 7702 cells; Gallium concentration 23.3 μM): 0.000 | OD600 nm (B. anthracis 7702 cells; Gallium concentration 27.1 μM): 0.001 | OD600 nm (B. anthracis 7702 cells; Gallium concentration 88.9 μM): 0.003 | OD600 nm (B. anthracis 7702 cells; Gallium concentration 614.8 μM): 0.000 | OD600 nm (B. anthracis 7702 cells; Gallium concentration 1709.9 μM): 0.000 | bactericidal concentration (MBC) (Pa [2]): approximately 0.7 μg/mL | minimum inhibitory concentration (MIC90) (Pa [2]): approximately 0.7 μg/mL
